Values after ≈ are worked out from the molar mass of the structure shown. Where two headings read alike, the source gives them in different places.
What was measured:
VRE [1] = assay: Broth microdilution MIC; assay type: cell-based, vancomycin resistant Enterococcus faecium; details: Enterococcus
Method: Once it was determined that this specific 4,5-disubstitution pattern imparted microbicidal activity onto the 2-AI framework, this activity was quantified by measuring the MIC of each derivative against a variety of representative pathogenic bacterial strains using the microdilution protocol (CSLI, Performance Standards for Antimicrobial Suceptibility Testing; Nineteenth Informational Supplement, Clinical and Laboratory Standards Institute, Wayne, Pa., 2009). E. coli, MDRAB, P. aeruginosa, MRSA, MSSA, S. epidermidis and VRE were used for initial evaluation. From this screen, compound 15 was determined to be the lead compound and had MIC values (μg/mL) of 2, 2, 1, 0.5, 0.25, and 1 against E. coli, MDRAB, MRSA, VRE, S. Epidermidis and MSSA.
S. aureus (ATCC #29213), S. epidermidis (ATCC #29886), MRSA (ATCC # BAA-44), MDRAB (ATCC # BAA-1605), vancomycin resistant Enterococcus faecium (VRE) (ATCC #51559) and E. coli (ATCC #35695) were obtained from the ATCC. Mechanically difibrinated sheep blood (DSB100) was obtained from Hemostat Labs. Mueller-Hinton medium was purchased from Fluka (#70192).
Broth Microdilution Method for MIC Determination.

MSSA = assay: Dispersion of pre-formed biofilms; assay type: cell-based, S. aureus; details: Staphylococcus aureus, read-out: EC50, 50% dispersion of a pre-formed biofilm
Method: (§1) The ability of 15 and 19 to disperse pre-formed biofilms was also determined for all of the aforementioned bacterial strains (both marine and terrestrial). To quantify this effect, the EC50 value of each compound against each bacterial strain was determined, where EC50 is defined as the concentration of compound that elicits 50% dispersion of a pre-formed biofilm. Both compounds are able to disperse pre-formed biofilms at low micromolar concentrations. These concentrations are also microbicidal to planktonic bacteria. […]
(§2) Preformed Biofilms: Dispersion assays were performed by taking an overnight culture of bacterial strain and subculturing it at an OD600 of 0.01 into the necessary medium (brain heart infusion for E. faecium, tryptic soy broth with a 0.5% glucose supplement (TSBG) for MRSA, S. aureus and S. epidermidis, Luria-Bertani (LB) medium for MDRAB and E. coli, and tryptic soy broth with a 0.5% glucose supplement and a 3.0% NaCl supplement (TGN) for R. salexigens, V. cholerae, V. vulnificus and L. anguillarum.) The resulting bacterial suspension was aliquoted (100 μL) into the wells of a 96-well PVC microtiter plate. […] Biofilm dispersion was quantitated by measuring the OD540 of each well in which a negative control lane wherein no biofilm was formed served as a background and was subtracted out.

VRE [2] = assay: Dispersion of pre-formed biofilms; assay type: cell-based, E. faecium (VRE); details: Enterococcus, read-out: EC50, 50% dispersion of a pre-formed biofilm
Method: as §1, §2

L. anguillarum = assay: Dispersion of pre-formed biofilms; assay type: cell-based, Listonella anguillarum; details: Vibrio anguillarum, read-out: EC50, 50% dispersion of a pre-formed biofilm
Method: as §1, §2

Vibrio vulnificus = assay: Marine bacteria microdilution MIC; details: V. vulnificus
[3] = test system: difibrinated sheep's blood; assay: Red blood cell hemolysis assay; assay type: cell-based
Method: Once the anti-biofilm and antibacterial properties of each 2-AI derivative had both been evaluated, the hemolytic potential of compounds 15, 19 and 1 was assessed (Liu et al., Antimicrob. Agents. Ch., 2007, 51: 597-603). […] Hemolysis was measured using difibrinated sheep's blood. Hemolytic potential was quantified by determining the HD50 of compound 15, 19 and 1, where HD50 is defined as the concentration that elicits 50% hemolysis. From this assay, we determined that the HD50 of compound 15, 19 and 1 were 66 μM, 61 μM and >400 μM. This corresponds to 22 and 21 μg/mL for compounds 15 and 19.
Red Blood Cell Hemolysis Assay.
Hemolysis assays were performed on mechanically difibrinated sheep blood (Hemostat Labs: DSB100). 1.5 mL of blood was placed into a microcentrifuge tube and centrifuged at 10000 rpm for ten minutes. The supernatant was removed and then the cells were resuspended with 1 mL of phosphate-buffered saline (PBS). The suspension was centrifuged, the supernatant was removed and cells resuspended two more times. The final cell suspension was then diluted tenfold. Test compound solutions were made in PBS and then added to aliquots of the tenfold suspension dilution. PBS alone was used as a negative control and as a zero hemolysis marker whereas a 1% Triton X sample was used as a positive control and the 100% lysis marker. Samples were then placed in an incubator at 37° C. while being shaken at 200 rpm for one hour. After one hour, the samples were transferred to microcentrifuge tubes and then centrifuged at 10000 rpm for ten minutes. The resulting supernatant was diluted by a factor of 40 in distilled water. The absorbance of the supernatant was measured with a UV spectrometer at a 540 nm wavelength.

Row | SMILES | MIC (VRE [1]) | EC50 (MSSA) | EC50 (VRE [2]) | EC50 (L. anguillarum) | MIC (Vibrio vulnificus; Vibrio vulnificus) | HD50 (concentration that elicits 50% hemolysis) [3] | HD50 (concentration that elicits 50% hemolysis) ([3]; converted from μM) | MIC (Vibrio vulnificus)
1 | CCCCCCc1[nH]c(N)nc1CCCCCc1ccccc1 [Compound 19, 5-hexyl-4-(5-phenylpentyl)-1H-imidazol-2-amine] | 0.5 µg/mL (≈ 1.59 µM) | 26.1 ± 0.7 µM | 14.1 ± 0.2 µM | 13.8 ± 1.5 µM | 2.2 µg/mL (≈ 7.02 µM) | 61 µM | 21 µg/mL | –
2 | CCCCCc1[nH]c(N)nc1CCCCCc1ccccc1 [Compound 15, 5-pentyl-4-(5-phenylpentyl)-1H-imidazol-2-amine] | 0.5 µg/mL (≈ 1.67 µM) | 19.9 ± 3.3 µM | 17.3 ± 2.3 µM | 14.7 ± 1.7 µM | 2.1 µg/mL (≈ 7.01 µM) | 66 µM | 22 µg/mL | 2.10 µg/mL (≈ 7.01 µM)
